Experiment [1] relates to phosphorylation of Abl at Y412. As to the kind of experiment: Immunoblot of Abl Y412 phosphorylation in BCR-ABL-expressing Ba/F3 cells. The experiment is classed as cell-based.
The test system of the next experiment is Ba/F3 BCR-ABL. As to the kind of experiment: MTT growth inhibition assay, Ba/F3 cells expressing Bcr-Abl. The conditions noted are these: ratio of IC50 values. The experiment is classed as cell-based.
The next experiment deals with panel of 244 kinases. As to the kind of experiment: Kinome profiling against a panel of 244 kinases. Type of experiment: biochemical. The following applies: 1 μM compound.
The test system of experiment [2] is phosphorylation of MEK and ERK (BRAF^V600E downstream signaling). As to the kind of experiment: Western blot of MEK/ERK phosphorylation in A375 cells. The experiment is classed as cell-based.

“Also recorded” adds a separate entry of the source.

For `CC(C)n1nc(C#Cc2cccc3cc(-c4ccc(CN5CCN(C)CC5)cc4)ncc23)c2c(N)ncnc21` [Compound 2f, 1-Isopropyl-3-((3-(4-((4-methylpiperazin-1-yl)methyl)phenyl)isoquinolin-8-yl)ethynyl)-1H-pyrazolo[3,4-d]pyrimidin-4-amine], the “fold lower potency than compound 1, Abl Y412 phosphorylation” value in experiment [1] was “approximately 30 fold”. In the experiment with Ba/F3 BCR-ABL, the “fold less potent than parent compound 1 against Bcr-Abl Ba/F3 cells” value worked out at 44 fold. Take `CC(C)n1nc(C#Cc2cccc(NC(=O)c3cccc(C(F)(F)F)c3)c2)c2c(N)ncnc21` [Compound 1]: in the experiment on panel of 244 kinases, the “number of kinases inhibited by over 90%” value came to 44. As for `CCCS(=O)(=O)Nc1ccc(F)c(C(=O)c2c[nH]c3ncc(-c4ccc(Cl)cc4)cc23)c1F` [Vem, vemurafenib, reference compound], the “effect on phosphorylation of MEK and ERK” value in experiment [2] (concentrations above 1 μM) was “abolished the phosphorylation of MEK and ERK”. Besides, in experiment [2] (various concentrations, Figure 4), the “effect on phosphorylation of MEK” value is listed as “potently blocked phosphorylation of MEK”.

On to `CCn1nc(C#Cc2cccc3cc(-c4cccc(C(F)(F)F)c4)ncc23)c2c(N)ncnc21` [Compound 2d, 1-Ethyl-3-((3-(3-(trifluoromethyl)phenyl)isoquinolin-8-yl)ethynyl)-1H-pyrazolo[3,4-d]p yrimidin-4-amine], for which the “effect on phosphorylation of MEK” value in experiment [2] (concentrations up to 100 μM) is on record as “failed to suppress the phosphorylation of MEK; also recorded: little effects”.

The values above are taken from article PMC5816697 (European journal of medicinal chemistry, 2018).
